IC50 data for 30 compounds are collected here from patent publication US20100190788A1, “Amide derivatives as kinase inhitors” (priority 2005, published 2010).

Structures can show the parent of a compound that is named as a salt.

T1 sequence (O75116 whole entry): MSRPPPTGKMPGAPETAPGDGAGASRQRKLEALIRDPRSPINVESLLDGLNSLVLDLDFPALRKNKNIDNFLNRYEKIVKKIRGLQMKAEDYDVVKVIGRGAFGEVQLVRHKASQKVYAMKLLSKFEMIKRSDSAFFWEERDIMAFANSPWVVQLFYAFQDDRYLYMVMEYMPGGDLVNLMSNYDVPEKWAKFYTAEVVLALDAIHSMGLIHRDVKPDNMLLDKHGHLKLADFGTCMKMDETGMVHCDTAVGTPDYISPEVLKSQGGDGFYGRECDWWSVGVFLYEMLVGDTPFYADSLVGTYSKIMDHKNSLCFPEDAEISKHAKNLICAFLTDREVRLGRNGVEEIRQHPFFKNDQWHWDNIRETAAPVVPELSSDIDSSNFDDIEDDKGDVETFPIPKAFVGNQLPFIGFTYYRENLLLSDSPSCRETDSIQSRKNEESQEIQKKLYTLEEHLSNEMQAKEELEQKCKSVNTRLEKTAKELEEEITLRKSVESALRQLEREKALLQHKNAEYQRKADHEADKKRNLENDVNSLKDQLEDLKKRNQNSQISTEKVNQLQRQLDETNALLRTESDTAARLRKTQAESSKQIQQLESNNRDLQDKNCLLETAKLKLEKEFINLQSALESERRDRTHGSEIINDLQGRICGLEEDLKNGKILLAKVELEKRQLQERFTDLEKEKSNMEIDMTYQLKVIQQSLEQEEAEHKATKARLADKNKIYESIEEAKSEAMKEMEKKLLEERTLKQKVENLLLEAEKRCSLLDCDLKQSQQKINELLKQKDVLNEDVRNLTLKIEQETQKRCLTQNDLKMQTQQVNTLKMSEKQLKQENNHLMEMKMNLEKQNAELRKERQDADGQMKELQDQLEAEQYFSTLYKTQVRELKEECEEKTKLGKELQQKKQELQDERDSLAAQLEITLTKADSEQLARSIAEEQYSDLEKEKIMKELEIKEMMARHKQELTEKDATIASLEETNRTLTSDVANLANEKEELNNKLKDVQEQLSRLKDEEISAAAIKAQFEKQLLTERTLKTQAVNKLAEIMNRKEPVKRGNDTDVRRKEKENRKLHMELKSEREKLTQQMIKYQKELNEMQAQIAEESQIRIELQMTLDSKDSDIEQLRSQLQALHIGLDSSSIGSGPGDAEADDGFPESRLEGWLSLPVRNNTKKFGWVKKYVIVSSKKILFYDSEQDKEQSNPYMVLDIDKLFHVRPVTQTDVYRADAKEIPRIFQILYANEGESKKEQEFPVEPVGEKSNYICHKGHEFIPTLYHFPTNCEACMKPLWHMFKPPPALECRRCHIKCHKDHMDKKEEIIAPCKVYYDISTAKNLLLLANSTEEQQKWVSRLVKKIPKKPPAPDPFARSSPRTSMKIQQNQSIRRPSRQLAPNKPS

One test concerns the target T1, human ROCKα/ROCKII mix (Homo sapiens, UniProt O75116).
T1 construct: purchased Upstate Biotechnology 14-451
The experiment in a line: ROCK inhibition, fluorescence polarization (FP) assay with ROCK IMAP Kit. The test is classed as biochemical. As to conditions: Table 1, compounds of Formula IV20. (In fluorescence polarisation assays a small probe gives low polarisation when free and higher when bound to something large.)
As a reminder, the IC50 is the midpoint of a concentration-inhibition curve. For `NC(C(=O)NCCN1CCOCC1)c1ccc(C(=O)Nc2ccncc2)cc1` (stereo not drawn) [Compound 45, 4-[amino-(2-morpholin-4-yl-ethylcarbamoyl)-methyl]-N-pyridin-4-yl-benzamide], the 50% inhibitory concentration (IC50) lay in the range of 0.5 to 5 µM.

Compound `CCCCNNC(=O)C(N)c1ccc(C(=O)Nc2ccncc2)cc1` (stereo not drawn) [Compound 54, 4-[amino-(N′-butyl-hydrazinocarbonyl)-methyl]-N-pyridin-4-yl-benzamide] showed an IC50 of under 0.5 µM.

`CC1CCC(NC(=O)C(N)c2ccc(C(=O)Nc3ccncc3)cc2)CC1` (stereo not drawn) [Compound 33, 4-[amino-(4-methyl-cyclohexylcarbamoyl)-methyl]-N-pyridin-4-yl-benzamide] returned an IC50 of 0.5 to 5 µM.

In the case of `CN(CCO)C(=O)C(N)c1ccc(C(=O)Nc2ccncc2)cc1` (stereo not drawn) [Compound 42, 4-{amino-[(2-hydroxy-ethyl)-methyl-carbamoyl]-methyl}-N-pyridin-4-yl-benzamide], the IC50 fell in the range of 0.5 to 5 µM.

`NC(C(=O)N1CCC(O)(c2ccccc2)CC1)c1ccc(C(=O)Nc2ccncc2)cc1` (stereo not drawn) [Compound 38, 4-[1-amino-2-(4-hydroxy-4-phenyl-piperidin-1-yl)-2-oxo-ethyl]-N-pyridin-4-yl-benzamide] registered an IC50 of 0.5 to 5 µM.

The compound `NC(C(=O)NCCc1ccc(F)cc1)c1ccc(C(=O)Nc2ccncc2)cc1` (stereo not drawn) [Compound 16, 4-{amino-[2-(4-fluoro-phenyl)ethylcarbamoyl]-methyl}-N-pyridin-4-yl-benzamide] yielded an IC50 of under 0.5 µM.

`NC(C(=O)N1CCc2ccccc2C1)c1ccc(C(=O)Nc2ccncc2)cc1` (stereo not drawn) [Compound 13, 4-[1-amino-2-(3,4-dihydro-1H-isoquinolin-2-yl)-2-oxo-ethyl]-N-pyridin-4-yl-benzamide] returned a concentration for half-maximal inhibition (IC50) of under 0.5 µM.

`CN(C)CCNC(=O)C(N)c1ccc(C(=O)Nc2ccncc2)cc1` (stereo not drawn) [Compound 44] showed an IC50 of 0.5 to 5 µM.

As for `NC(C(=O)NCc1ccncc1)c1ccc(C(=O)Nc2ccncc2)cc1` (stereo not drawn) [Compound 11, 4-{amino-[(pyridin-4-ylmethyl)-carbamoyl]-methyl}-N-pyridin-4-yl-benzamide], the IC50 lay in the range of 0.5 to 5 µM.

The same test, now with this note: Table 2, compounds of Formula V20.
Compound `NC(CNS(=O)(=O)c1ccc(Oc2ccccc2)cc1)c1ccc(C(=O)Nc2ccncc2)cc1` (stereo not drawn) [Compound 74, 4-[1-amino-2-(4-phenoxy-benzenesulfonylamino)-ethyl]-N-pyridin-4-yl-benzamide] registered an IC50 of 0.5 to 5 µM.

`NC(CNS(=O)(=O)c1ccc(Cl)cc1)c1ccc(C(=O)Nc2ccncc2)cc1` (stereo not drawn) [Compound 67, 4-[1-amino-2-(4-chloro-benzenesulfonylamino)-ethyl]-N-pyridin-4-yl-benzamide] came in with an IC50 of under 0.5 µM.

Still in this test, the particulars now being: Table 3, compounds of Formula III20.
`COc1cccc(C2CCCCN2C(=O)CC(N)c2ccc(C(=O)Nc3ccncc3)cc2)c1` (stereo not drawn) [Compound 98, 4-{1-amino-3-[2-(3-methoxy-phenyl)-piperidin-1-yl]-3-oxo-propyl}-N-pyridin-4-yl-benzamide] came in with an IC50 of under 0.5 µM.

In the case of `COc1ccc(Cl)cc1C1CCCCN1C(=O)CC(N)c1ccc(C(=O)Nc2ccncc2)cc1` (stereo not drawn) [Compound 96, 4-{1-amino-3-[2-(5-chloro-2-methoxy-phenyl)-piperidin-1-yl]-3-oxo-propyl}-N-pyridin-4-yl-benzamide], the IC50 was under 0.5 µM.

`NC(CC(=O)N1CCN(Cc2ccc(F)cc2)CC1)c1ccc(C(=O)Nc2ccncc2)cc1` (stereo not drawn) [Compound 123, 4-{1-amino-3-[4-(4-fluoro-benzyl)-piperazin-1-yl]-3-oxo-propyl}-N-pyridin-4-yl-benzamide] gave an IC50 of under 0.5 µM.

Compound `NC(CC(=O)N1CCCC1c1ccc(F)cc1F)c1ccc(C(=O)Nc2ccncc2)cc1` (stereo not drawn) [Compound 89, 4-{1-amino-3-[2-(2,4-difluoro-phenyl)-pyrrolidin-1-yl]-3-oxo-propyl}-N-pyridin-4-yl-benzamide] came in with an IC50 of under 0.5 µM.

Turning to `NC(CC(=O)N1CCCC1c1cccc(Cl)c1)c1ccc(C(=O)Nc2ccncc2)cc1` (stereo not drawn) [Compound 85, 4-{1-amino-3-[2-(3-chloro-phenyl)-pyrrolidin-1-yl]-3-oxo-propyl}-N-pyridin-4-yl-benzamide], the IC50 was under 0.5 µM.

`COC(=O)c1ccc(C2CCCCN2C(=O)CC(N)c2ccc(C(=O)Nc3ccncc3)cc2)cc1` (stereo not drawn) [Compound 127, 4(1-{3-amino-3-[4-(pyridin-4-ylcarbamoyl)-phenyl]-propionyl}-piperidin-2-yl)-benzoic acid methyl ester] came in with an IC50 of under 0.5 µM.

Turning to `NC(CC(=O)N1CCOCC1c1ccccc1)c1ccc(C(=O)Nc2ccncc2)cc1` (stereo not drawn) [Compound 99, 4-[1-Amino-3-oxo-3-(3-phenyl-morpholin-4-yl)-propyl]-N-pyridin-4-yl-benzamide], the IC50 is under 0.5 µM.

Regarding `NC(CC(=O)N1CCc2c([nH]c3ccccc23)C1c1cccc(Cl)c1)c1ccc(C(=O)Nc2ccncc2)cc1` (stereo not drawn) [Compound 129, 4-{1-amino-3-[1-(3-chloro-phenyl)-1,3,4,9-tetrahydro-β-carbolin-2-yl]-3-oxo-propyl}-N-pyridin-4-yl-benzamide], the concentration for half-maximal inhibition (IC50) is 0.5 to 5 µM.

As to `NC(CC(=O)N1CCSC1)c1ccc(C(=O)Nc2ccncc2)cc1` (stereo not drawn) [Compound 106, 4-(1-amino-3-oxo-3-thiazolidin-3-yl-propyl)-N-pyridin-4-yl-benzamide], the IC50 is under 0.5 µM.

As to `NC(CC(=O)N1CCC(c2ccccc2)CC1)c1ccc(C(=O)Nc2ccncc2)cc1` (stereo not drawn) [Compound 117, 4-[1-amino-3-(4-phenyl-piperidin-1-yl)-3-oxo-propyl]-N-pyridin-4-yl-benzamide], the IC50 was under 0.5 µM.

The compound `CC(C)N1CCN(C(=O)CC(N)c2ccc(C(=O)Nc3ccncc3)cc2)CC1` (stereo not drawn) [Compound 114, 4-[1-amino-3-(4-isopropyl-piperazin-1-yl)-3-oxo-propyl]-N-pyridin-4-yl-benzamide] gave an IC50 of under 0.5 µM.

`NC(CC(=O)N1CCCCC1c1cccc2ccccc12)c1ccc(C(=O)Nc2ccncc2)cc1` (stereo not drawn) [Compound 93, 4-[1-amino-3-(2-naphthalen-1-yl-piperidin-1-yl)-3-oxo-propyl]-N-pyridin-4-yl-benzamide] returned an IC50 of under 0.5 µM.

Still in this test, the particulars now being: Table 4, compounds 132 to 156.
`CN(CC(N)c1ccc(C(=O)Nc2ccncc2)cc1)S(=O)(=O)c1ccccc1Cl` (stereo not drawn) [Compound 143, 4-{1-Amino-2-[(2-chloro-benzenesulfonyl)-methyl-amino]-ethyl}-N-pyridin-4-yl-benzamide dihydrochloric acid salt] returned an IC50 of 0.5 to 5 µM.

As to `CN(CC(N)c1ccc(C(=O)Nc2ccncc2)cc1)S(=O)(=O)c1ccc(F)cc1` (stereo not drawn) [Compound 140, 4-{1-Amino-2-[(4-fluoro-benzenesulfonyl)-methyl-amino]-ethyl}-N-pyridin-4-yl-benzamide dihydrochloric acid salt], the IC50 was in the range of 0.5 to 5 µM.

`N[C@H](C(=O)NCc1ccccc1)c1ccc(C(=O)Nc2ccncc2)cc1` [Compound 155, 4-((S)-Amino-benzylcarbamoyl-methyl)-N-pyridin-4-yl-benzamide dihydrochloric acid salt] yielded an IC50 of under 0.5 µM.

In turn, `COc1ccc(S(=O)(=O)N(C)C[C@@H](N)c2ccc(C(=O)Nc3ccncc3)cc2)cc1` [Compound 154, 4-{(S)1-Amino-2-[(4-methoxy-benzenesulfonyl)-methyl-amino]-ethyl}-N-pyridin-4-yl-benzamide dihydrochloric acid salt] had an IC50 of under 0.5 µM.

The compound `NC(c1ccc(C(=O)Nc2ccncc2)cc1)C1CCCN1S(=O)(=O)c1cccc(F)c1` (stereo not drawn) [Compound 137, 4-{Amino-[1-(3-fluoro-benzenesulfonyl)-pyrrolidin-2-yl]-methyl}-N-pyridin-4-yl-benzamide dihydrochloric acid salt] returned an IC50 of 0.5 to 5 µM.

The compound `N[C@@H](CC(=O)N1CCC[C@H]1c1cccc(F)c1)c1ccc(C(=O)Nc2ccncc2)cc1` [Compound 152, 4-{(S)-1-Amino-3-[(S)-2-(3-fluoro-phenyl)-pyrrolidin-1-yl]-3-oxo-propyl}-N-pyridin-4-yl-benzamide dihydrochloric acid salt] yielded an IC50 of under 0.5 µM.

As to `NC(c1ccc(C(=O)Nc2ccncc2)cc1)C1CCCN1S(=O)(=O)c1ccc(Cl)cc1` (stereo not drawn) [Compound 135, 4-{Amino-[1-(4-chloro-benzenesulfonyl)-pyrrolidin-2-yl]-methyl}-N-pyridin-4-yl-benzamide dihydrochloric acid salt], the IC50 lay within 0.5 to 5 µM.
